Measured values: patent US20140242599A1, “MATERIALS AND METHODS FOR DETERMINING SENSITIVITY POTENTIAL OF COMPOUNDS” (ELECTROPHORETICS LIMITED, priority 2011, published 2014)

Tests used:
[1] = test system: luciferase gene under the control of the ARE of the AKR1C2 gene in HaCaT keratinocytes; conditions: screen of 43 sensitizers and 24 non-sensitizers; cited from earlier work
[2] = test system: Heat shock 70 kDa protein 1 (HSP70, HSPA1A; HSPA1B); experiment: HSP70-specific ELISA of keratinocyte cell extracts; type: cell-based; conditions: primary human keratinocytes, 24 h exposure, FIG. 3
[3] = test system: Metallothionein-1G (MT1G); experiment: Western Blot quantification of MT1G in keratinocyte cell extracts; type: cell-based; conditions: primary human keratinocytes, 24 h exposure, FIG. 5
Description: (§1) Primary human keratinocytes were obtained from Provitro (Berlin, Germany). Cells were seeded at 3×10E5 cells per 10 cm dish. Cells were grown in serum free supplemented keratinocyte growth medium (Provitro) to 80-90% density prior to treatment. Cells were grown at 37° C. in 5% CO2. Second and third passages post-cryopreserved seedings were used for experiments
(§2) Test chemicals were added and the plates were incubated for 24 hours at 37° C. in a 5% CO2 humidified incubator. When a chemical was dissolved in DMSO, a final concentration of 0.1% DMSO was used in the relevant negative control. After 24 h incubation, cells were harvested and washed twice in PBS.
Cells were lysed in four volumes of 100 mM TEAB (triethylammonium bicarbonate), pH 8.5+0.1, 1 mM TCEP (tris[2-carboxyethyl]phosphine*HCl), 0.1% SDS. […]
(§3) As an alternative approach to find predictive markers for sensitizing potential we measured the concentration of biomarkers using commercially available immunoassays to measure the levels of three biomarkers. The three proteins to be measured by Western Blot or ELISA were selected on the basis of a review of literature references to biomarkers of stress toxicity pathways. […]
. […] Effects of contact sensitizers and irritants on MT1G production was determined by Western Blot analysis using MT1G specific antibodies (clone UC1MT, Biozol, Eching, Germany). […]

[4] = mouse, in vivo; cited from earlier work
[5] = test system: Primary human keratinocytes; experiment: TMT proteomic profiling of exposed keratinocytes, PLS score plot of 102 protein biomarkers; type: cell-based; conditions: second study, four donors, FIG. 2
[6] = test system: Aldo-keto reductase family 1, member C2 (AKR1C2); experiment: Western Blot quantification of AKR1C2 in keratinocyte cell extracts; type: cell-based; conditions: primary human keratinocytes, 24 h exposure, FIG. 4
Description: as §1, §2
Cells were lysed in four volumes of 100 mM TEAB (triethylammonium bicarbonate), pH 8.5+0.1, 1 mM TCEP (tris[2-carboxyethyl]phosphine*HCl), 0.1% SDS. After suspending the cell pellet in lysis buffer the suspension was heated at 95° C. for ten minutes in a thermomixer ([Eppendorf, Thermomixer comfort). […]
as §3

Nrf2 pathway = conditions: cited from earlier work

SMILES	KeratinoSens identification of sensitizer [1]	HSP70 induction (ELISA) [2]	MT1G induction (Western Blot) [3]	LLNA EC3 (%) [4] [%]	LLNA outcome / sensitizer potency class [4]	relative distance from the centre of the PLS score plot (size of response) [5]	AKR1C2 induction (Western Blot) [6]	reactivity of BDKs, NEHKs and THP-1 (Nrf2 pathway) (Nrf2 pathway)
O=C(Oc1ccccc1)c1ccccc1 [phenyl benzoate]	false negative							
CN(C)C(=S)SSC(=S)N(C)C [TMTD, Tetramethyl thiuram disulfide]		most strongly induced	most strongly induced	5.2	(moderate)	smaller distance to the centre of the plot		
O=CC=Cc1ccccc1 [CA, 3-phenyl-2-Propenal]		most strongly induced		2.8	(moderate)		only induced in CA exposed samples	
O=[N+]([O-])c1ccc(Cl)c([N+](=O)[O-])c1 [DNCB, 1-chloro-2,4-dinitrobenzene]		small						high reactivity
